These are literature values, as cited in patent publication US20260041677A1, “COMPOSITIONS AND METHODS FOR TREATING ADENOID CYSTIC CARCINOMA” (ELEVAR THERAPEUTICS, INC., priority 2022, published 2026).

For this data set, the system named is R/M ACC. The settings on record: RECIST V1.1; 500 mg QD; 68 patients, head and neck R/M ACC; cited from earlier work.

SMILES strings stand for the structures.

Take `N#CC1(c2ccc(NC(=O)c3cccnc3NCc3ccncc3)cc2)CCCC1` [Rivoceranib, N-[4-(1-cyanocyclopentyl)phenyl]-2-{[(pyridin-4-yl)methyl]amino}pyridine-3-carboxamide]: the “6-month PFS” value is recorded as 92.3%, the ORR was 46.2% and the “median DOR” value is given as 17.7 months.
